Experimental data published in patent US20170055529A1, “BROAD SPECTRUM WEED CONTROL IN FLOODED RICE BY IN-WATER APPLICATION OF AUXIN HERBICIDES” (priority 2015, published 2017).

Tests used:
Format in all cases: in vivo
[1] = test system: CYPDI = Cyperus difformis (small-flower flatsedge); experiment: Greenhouse in-water herbicidal activity (large pots); conditions: for Percent (%) Visual Injury Ratings - 16 DAA, CYPDI / Percent (%) Visual Injury Ratings - 22 DAA, CYPDI: greenhouse large pots; for pest or weed control at 280 g/ha / pest or weed control at 560 g/ha / pest or weed control at 1120 g/ha: Cyperus difformis, 744 h, read-out: Percent (%) Visual Injury Ratings - 31 DAA, CYPDI
Protocol: (§1) Weed seeds or nutlets of the desired test plant species were planted in puddled soil (mud) prepared by mixing shredded topsoil and deionized (DI) water in a 1:1 ratio in a standard cement mixer. […] Osmocote® (17:6:10 N:P:K; 0.5 teaspoon) was added to the bottom of a container. The container is a high-density polyethylene (HDPE) round container (4.163 L (1.1 gallon), 15 cm high×20.55 cm diameter; for treatment purposes, the surface area is calculated as 331 cm^2 with 1 hectare equivalent to 10^8 cm^2). The mud mixture (2,750 mL) was added to the container filling it half full. Stakes were placed horizontally in each container to create separate areas for which to plant each different plant species. Water was added on a regular basis to maintain the paddy flood, and supplemental lighting was provided with overhead metal halide 1000-Watt lamps as necessary.
(§2) Once the plants had reached the proper size (the growth stage of the various species ranged from 2 to 4 leaves), the containers were flooded with city water to a depth of 3 cm submerging the plants 80-100%. The outside of each container was measured and marked at a 3-cm line with a black permanent marker to eliminate water level variability during the trial period. Water was added daily to maintain this water depth. Triclopyr triethylammonium (as Garlon® 3 A, 360 g ae/L); triclopyr butoxyethyl ester (as Garlon® 4, 480 g ae/L); fluroxypyr methylheptyl ester (meptyl or MHE, as Starane® Ultra, 333 g ae/L); fluroxypyr acid (850 grams acid equivalent per kilogram (g ae/kg)); 2,4-dichlorophenoxyacetic acid dimethylammonium (2,4-D DMA, as Weedar® 64 EC, 456 g ae/L); 2,4-dichlorophenoxyacetic acid 2-ethylhexyl ester (2,4-D 2-EHE, as Agri Star®, 456 g ae/L); clopyralid olamine (as Stinger®, 360 g ae/L); and penoxsulam (as Grasp® SC, 240 g ai/L) were used. Each herbicide treatment for each pot was mixed in water (80 mL) and applied directly into the paddy water at rates adjusted to the surface area. The dry formulations were pre-weighed based on the rate of the active ingredient to be applied on a per unit area basis, placed in 30 mL vials, and capped. Granules were spread onto the top of the water in each pot and dispersed throughout the water. Treatments were replicated 3 times.
(§3) The treated plants and control plants were placed in a greenhouse as described above and water was added as needed to maintain a flood depth of 3 cm. […]

[2] = test system: ECHCG = Echinochloa crus-galli (barnyardgrass); experiment: as above; conditions: 744 h, read-out: Percent (%) Visual Injury Ratings - 31 DAA, ECHCG
Protocol: as §1, §2, §3

[3] = test system: MOOVA = Monochoria vaginalis (monochoria); experiment: as above; conditions: for Percent (%) Visual Injury Ratings - 16 DAA, MOOVA / Percent (%) Visual Injury Ratings - 22 DAA, MOOVA: greenhouse large pots; for pest or weed control at 280 g/ha / pest or weed control at 560 g/ha / pest or weed control at 1120 g/ha: Pontederia vaginalis, 744 h, read-out: Percent (%) Visual Injury Ratings - 31 DAA, MOOVA
Protocol: as §1, §2, §3

[4] = test system: CYPDI = Cyperus difformis (small-flower flatsedge); experiment: Field trial in-water herbicidal efficacy
Protocol: (§4) Field trials were conducted in rice using standard herbicide small plot research methodology. Plot size was 2 square meters (m^2) using 1.6 meter (m) diameter rings placed into the rice paddy soil with capability for flooding to maintain good rice cultural practices and rice growing conditions. There were 3 replicates per treatment. Rice was Japonica type that was hand-transplanted into the saturated soil in the rings as per normal cultural practices. The transplanted rice crop was grown using normal cultural practices for fertilization, watering, flooding and maintenance to ensure good growth of the crop and the weeds under transplanted rice conditions in Taiwan.
(§5) Treatments were applied by mixing the treatments with deionized water just prior to water-injection application by hand to multiple sides in the ring plots. For each 2 m^2 plot, 50 mL deionized water was mixed with the appropriate formulated product amounts to treat 2 m^2 to achieve the desired application rates based on unit area of application (hectare). Ring plot water depth was kept at 3 to 7 cm deep before and after water-injection application.
(§6) The rice and weeds were evaluated at 28 days after application (DAA). Triclopyr triethylammonium (as Garlon® 3 A, 360 g ae/L); fluroxypyr methylheptyl ester (meptyl or MHE, as Starane® Ultra, 333 g ae/L); 2,4-dichlorophenoxyacetic acid dimethylammonium (2,4-D AMINE, 400 g ae/L SL); penoxsulam (as Grasp® SC, 240 g ai/L); and bensulfuron-methyl (as LONDAX® 10% WAY WP) were used.
(§7) The treated and control plots were rated at 28 days after application. Ratings were based on percent (%) visual weed control, where 0 corresponds to no control and 100 corresponds to complete control.

[5] = test system: ECHCG = Echinochloa crus-galli (barnyardgrass); experiment: Field trial in-water herbicidal efficacy
Protocol: as §4, §5, §6, §7

[6] = test system: LEFCH = Leptochloa chinensis (Chinese sprangletop); experiment: Field trial in-water herbicidal efficacy
Protocol: as §4, §5, §6, §7

[7] = test system: MOOVA = Monochoria vaginalis (monochoria); experiment: Field trial in-water herbicidal efficacy
Protocol: as §4, §5, §6, §7

[8] = test system: SCPJU = Schoenoplectus juncoides (Japanese bulrush); experiment: Field trial in-water herbicidal efficacy
Protocol: as §4, §5, §6, §7

Compound	Percent (%) Visual Injury Ratings - 16 DAA, CYPDI ([1]; 35 g ae/ha) [%]	Percent (%) Visual Injury Ratings - 22 DAA, CYPDI ([1]; 35 g ae/ha) [%]	Percent (%) Visual Injury Ratings - 16 DAA, CYPDI ([1]; 70 g ae/ha) [%]	Percent (%) Visual Injury Ratings - 22 DAA, CYPDI ([1]; 70 g ae/ha) [%]	Percent (%) Visual Injury Ratings - 16 DAA, CYPDI ([1]; 140 g ae/ha) [%]	Percent (%) Visual Injury Ratings - 22 DAA, CYPDI ([1]; 140 g ae/ha) [%]	Percent (%) Visual Injury Ratings - 16 DAA, CYPDI ([1]; 280 g ae/ha) [%]	Percent (%) Visual Injury Ratings - 22 DAA, CYPDI ([1]; 280 g ae/ha) [%]	pest or weed control at 280 g/ha [1] [%]	pest or weed control at 560 g/ha [1] [%]	pest or weed control at 1120 g/ha [1] [%]	pest or weed control at 280 g/ha [2] [%]	pest or weed control at 560 g/ha [2] [%]	pest or weed control at 1120 g/ha [2] [%]	Percent (%) Visual Injury Ratings - 16 DAA, MOOVA ([3]; 35 g ae/ha) [%]	Percent (%) Visual Injury Ratings - 22 DAA, MOOVA ([3]; 35 g ae/ha) [%]	Percent (%) Visual Injury Ratings - 16 DAA, MOOVA ([3]; 70 g ae/ha) [%]	Percent (%) Visual Injury Ratings - 22 DAA, MOOVA ([3]; 70 g ae/ha) [%]	Percent (%) Visual Injury Ratings - 16 DAA, MOOVA ([3]; 140 g ae/ha) [%]	Percent (%) Visual Injury Ratings - 22 DAA, MOOVA ([3]; 140 g ae/ha) [%]	other results
CCCCCCC(C)OC(=O)COc1nc(F)c(Cl)c(N)c1Cl (centres unmarked) [Fluroxypyr-meptyl (Starane ® Ultra), 1-methylheptyl 2-[(4-amino-3,5-dichloro-6-fluoro-2-pyridinyl)oxy]acetate]	8	28	13	28	20	79	33	89	100	100	100	45	75	99	27	0	27	3	13	0	Percent (%) Visual Injury Ratings - 16 DAA, MOOVA ([3]; 280 g ae/ha): 5%; Percent (%) Visual Injury Ratings - 22 DAA, MOOVA ([3]; 280 g ae/ha): 15%; pest or weed control at 280 g/ha [3]: 100%; pest or weed control at 560 g/ha [3]: 100%; pest or weed control at 1120 g/ha [3]: 100%; Percent (%) Visual Injury Ratings - 28 DAA, CYPDI ([4]; 140 g ae/ha in-water 10 DAT): 95.0%; Percent (%) Visual Injury Ratings - 28 DAA, CYPDI ([4]; 280 g ae/ha in-water 10 DAT): 98.7%; Percent (%) Visual Injury Ratings - 28 DAA, CYPDI ([4]; 560 g ae/ha in-water 10 DAT): 100.0%; Percent (%) Visual Injury Ratings - 28 DAA, ECHCG ([5]; 140 g ae/ha in-water 10 DAT): 0.0%; Percent (%) Visual Injury Ratings - 28 DAA, ECHCG ([5]; 280 g ae/ha in-water 10 DAT): 0.0%; Percent (%) Visual Injury Ratings - 28 DAA, ECHCG ([5]; 560 g ae/ha in-water 10 DAT): 0.0%; Percent (%) Visual Injury Ratings - 28 DAA, LEFCH ([6]; 140 g ae/ha in-water 10 DAT): 0.0%; Percent (%) Visual Injury Ratings - 28 DAA, LEFCH ([6]; 280 g ae/ha in-water 10 DAT): 0.0%; Percent (%) Visual Injury Ratings - 28 DAA, LEFCH ([6]; 560 g ae/ha in-water 10 DAT): 0.0%; Percent (%) Visual Injury Ratings - 28 DAA, MOOVA ([7]; 140 g ae/ha in-water 10 DAT): 0.0%; Percent (%) Visual Injury Ratings - 28 DAA, MOOVA ([7]; 280 g ae/ha in-water 10 DAT): 0.0%; Percent (%) Visual Injury Ratings - 28 DAA, MOOVA ([7]; 560 g ae/ha in-water 10 DAT): 60.0%; Percent (%) Visual Injury Ratings - 28 DAA, SCPJU ([8]; 140 g ae/ha in-water 10 DAT): 88.3%; Percent (%) Visual Injury Ratings - 28 DAA, SCPJU ([8]; 280 g ae/ha in-water 10 DAT): 98.0%; Percent (%) Visual Injury Ratings - 28 DAA, SCPJU ([8]; 560 g ae/ha in-water 10 DAT): 99.3%
O=C(O)COc1nc(Cl)c(Cl)cc1Cl [Triclopyr triethanolamine (Garlon ® 3A), triethylammonium 2[(3,5,6-trichloro-2-pyridinyl)oxy]acetate]	100	100	98	100	97	100	100	100	97	99	100	65	75	89	84	92	89	89	78	82	Percent (%) Visual Injury Ratings - 16 DAA, MOOVA ([3]; 280 g ae/ha): 98%; Percent (%) Visual Injury Ratings - 22 DAA, MOOVA ([3]; 280 g ae/ha): 100%; pest or weed control at 280 g/ha [3]: 100%; pest or weed control at 560 g/ha [3]: 100%; pest or weed control at 1120 g/ha [3]: 100%; Percent (%) Visual Injury Ratings - 28 DAA, CYPDI ([4]; 140 g ae/ha in-water 10 DAT): 0.0%; Percent (%) Visual Injury Ratings - 28 DAA, CYPDI ([4]; 280 g ae/ha in-water 10 DAT): 0.0%; Percent (%) Visual Injury Ratings - 28 DAA, CYPDI ([4]; 560 g ae/ha in-water 10 DAT): 0.0%; Percent (%) Visual Injury Ratings - 28 DAA, ECHCG ([5]; 140 g ae/ha in-water 10 DAT): 0.0%; Percent (%) Visual Injury Ratings - 28 DAA, ECHCG ([5]; 280 g ae/ha in-water 10 DAT): 0.0%; Percent (%) Visual Injury Ratings - 28 DAA, ECHCG ([5]; 560 g ae/ha in-water 10 DAT): 0.0%; Percent (%) Visual Injury Ratings - 28 DAA, LEFCH ([6]; 140 g ae/ha in-water 10 DAT): 0.0%; Percent (%) Visual Injury Ratings - 28 DAA, LEFCH ([6]; 280 g ae/ha in-water 10 DAT): 0.0%; Percent (%) Visual Injury Ratings - 28 DAA, LEFCH ([6]; 560 g ae/ha in-water 10 DAT): 0.0%; Percent (%) Visual Injury Ratings - 28 DAA, MOOVA ([7]; 140 g ae/ha in-water 10 DAT): 0.0%; Percent (%) Visual Injury Ratings - 28 DAA, MOOVA ([7]; 280 g ae/ha in-water 10 DAT): 0.0%; Percent (%) Visual Injury Ratings - 28 DAA, MOOVA ([7]; 560 g ae/ha in-water 10 DAT): 0.0%; Percent (%) Visual Injury Ratings - 28 DAA, SCPJU ([8]; 140 g ae/ha in-water 10 DAT): 0.0%; Percent (%) Visual Injury Ratings - 28 DAA, SCPJU ([8]; 280 g ae/ha in-water 10 DAT): 0.0%; Percent (%) Visual Injury Ratings - 28 DAA, SCPJU ([8]; 560 g ae/ha in-water 10 DAT): 0.0%
